Data from EP4699605A1, “USE OF NOVEL COMPOUND FOR TREATING INTRACTABLE DISEASES” (YJ Cerapeutics Inc., priority 2023, dated 2024).

Experiments:
[1] = tested on: nerve injury animal models (SCI, LSS, SNI); experiment: Mechanical allodynia (von-Frey filaments, 50% paw withdrawal threshold) in nerve injury animal models; type: in vivo, Sprague-Dawley rats; conditions: intraperitoneal 5 mg/kg; at 1 hour after administration
Method: To be used as a central nerve injury animal model, a traumatic spinal cord injury (SCI) model was prepared (FIG. 1A). Specifically, 230 to 250 g of male adult Sprague-Dawley rats were anesthetized by intraperitoneal injection of chloral hydrate (500 mg/kg), and then the back and neck regions were shaved, and the spinal cord under the back and neck regions was exposed without damaging the dura mater, and a laminectomy was performed at T9 to T10 levels. To stabilize the spine, the spinous processes of T8 and T11 were fixed, and the spine was damaged by free-falling a 10 g weight from a height of 25 mm using an NYU impactor onto the back surface of the exposed spinal cord and then the rats were left in a temperature and humidity-controlled chamber overnight while covering the muscles and skin. After surgery, the rats were subcutaneously injected with a supplement solution (5 ml, lactated ringer) and injected with antibiotics (gentamicin, 5 mg/kg, intramuscular injection) once daily for 5 days. The body weight, remaining food, and the weight of water were confirmed and recorded for all animals, and the bladder was emptied twice daily by passive bladder massage until reflex micturition was established. At this time, a Sham group was a group that was subjected to only laminectomy without damage.
To be used as a peripheral nerve injury animal model, a lumbar spinal stenosis (LSS) model was prepared (FIG. 1B). Specifically, 260 to 280 g of adult male Sprague-Dawley rats were anesthetized with intraperitoneal injection of chloral hydrate (500 mg/kg), the back region was shaved, and then the spinal plate was exposed at L4 to S2 levels. After removing the ligamentous section between L4 and L5, a trapezoidal silicone block (1.00 mm long × 1.3 to 1.2 mm wide × 1.0 mm high) was inserted into the epidural space below the L5 and L6 spinal plates without damaging the dural sac. At this time, a Sham group was a group that was subjected to only posterior […] on the animal without inserting a silicone block.
To be used as a peripheral nerve injury animal model, a sciatic nerve injury (SNI) model was prepared (FIG. 1C). Specifically, 200 to 220 g of male adult Sprague-Dawley rats were anesthetized by intraperitoneal injection of chloral hydrate (500 mg/kg), and then three terminal branches (tibial, common peroneal, and sural nerves) of the right sciatic nerve were approached, and the tibia nerve and the peroneal nerve were tightly ligated with 4-0 silk, and neurectomy was performed at a distal 3 mm position of the ligation site. At this time, a Sham group was a group that exposed only the sciatic nerve without damage.
In order to confirm a neuropathic pain inhibitory effect of YJ102 (Chemical Formula 1), a compound of the present disclosure, in the three nerve injury animal models prepared in Example 1 above, rats having pain on week 3 (SNI model) or week 4 (SCI model and LSS model) after surgery were selected and administered orally (p.o.) at 10 mg/kg or 20 mg/kg of YJ102 dissolved in a solution of DMSO, methyl pyrrolidinone, and water (1 : 1.5 : 1), or intraperitoneally injected (i.p. injection) at 1, 2, or 5 mg/kg of YJ102. In a positive control group, gabapentin or pregabalin dissolved in saline was intraperitoneally injected at a concentration of 5 mg/kg, and in a Vehicle group, the same amount of a solution of DMSO, methyl pyrrolidinone, and water was administered. Thereafter, in order to measure mechanical allodynia, the rats were located at the bottom of a transparent plastic box (10 cm × 10 cm) on top of a wire mesh (3 mm × 3 mm) and subjected to an adaptation period for approximately 20 minutes. Von-Frey filaments were applied to the soles of both paws and used with stiff nylon von-Frey monofilament series ([…], Stoelting, WoodDale, IL, USA; equivalent in grams to 0.4, 0.6, 1.0, 2.0, 4.0, 6.0, 8.0 and 15.0) with logarithmic increases in tactile (mechanical) sensitivity. […]

[2] = Observation of sedation as a side effect at high doses; type: in vivo, rats

Row | SMILES | analgesic effect (mechanical allodynia) [1] | sedation as a side effect ([2]; 50 mg/kg) | sedation as a side effect ([2]; 20 mg/kg)
1 | NCC1(CC(=O)O)CCCCC1 [gabapentin, reference compound] | significant analgesic effect | observed | 
2 | CC(C)C[C@H](CN)CC(=O)O [pregabalin, reference compound] | significant analgesic effect |  | observed
